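Protocol summary: plate cells (96-well), add compound at 5 concentrations, incubate 48 h, interpolate endpoints linearly. TGI is the concentration that stops growth completely.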

This passage reports TGI results from PubChem BioAssay (NCI).

Test systems include NCI-H23 lung; ACHN renal; SK-MEL-28 melanoma; HOP-92 NSCLC; UO-31 renal; IGROV1 ovarian; SK-MEL-5 melanoma; UACC-62 melanoma; A549 NSCLC; HL-60(TB) leukemia.
Holding throughout (assay): NCI anticancer screen, dose series, 48 h

With `CC(=O)ON(C(C)=O)C1C(COC(c2ccccc2)(c2ccccc2)c2ccccc2)OC2OC3(CCCC3)OC21` (stereo not given), the TGI in the experiment with NCI-H23 lung was more than 100 µM; in the experiment with ACHN renal, more than 100 µM; with SK-MEL-28 melanoma it was more than 100 µM; in the experiment on HOP-92 NSCLC, 8.27 µM; with UO-31 renal it was more than 100 µM; in the experiment on IGROV1 ovarian it was more than 100 µM. In addition, the TGI in the experiment on SK-MEL-5 melanoma, with UACC-62 melanoma, in the experiment on A549 NSCLC and in the experiment on HL-60(TB) leukemia was more than 100 µM each time.
Regarding `CC1CCc2c(c(CC3CC(=O)NC(=O)C3)nn2-c2ccccc2)C1` (stereo not given), the TGI in the experiment with NCI-H23 lung, in the experiment on ACHN renal, in the experiment with SK-MEL-28 melanoma, in the experiment with HOP-92 NSCLC, with UO-31 renal and in the experiment on IGROV1 ovarian was more than 100 µM throughout. Besides, the TGI in the experiment on SK-MEL-5 melanoma, in the experiment with UACC-62 melanoma, in the experiment on A549 NSCLC and in the experiment with HL-60(TB) leukemia was more than 100 µM throughout.
As to `C/C(CCn1[nH]c(=O)ccc1=O)=N\Nc1ccc([N+](=O)[O-])cc1[N+](=O)[O-]`, the TGI with NCI-H23 lung, in the experiment with ACHN renal, in the experiment with SK-MEL-28 melanoma, with HOP-92 NSCLC, in the experiment with UO-31 renal and with IGROV1 ovarian was more than 100 µM in each case. The TGI with SK-MEL-5 melanoma, in the experiment with UACC-62 melanoma, in the experiment on A549 NSCLC and with HL-60(TB) leukemia was more than 100 µM in each case.
